Our source for the KD1, N1 and Kd values is PMC9613470, “Diverse MarR bacterial regulators of auxin catabolism in the plant microbiome” (Nature Microbiology, 2022).

For assay [1], the target named is Variovorax paradoxus CL14 MarR_50. Nature of the assay: ITC IAA binding to MarR_50 (IadR2). The settings on record: 25 °C, IadR2 (MarR_50-like). As to the method:
(§1) The coding sequence for each gene can be found in Supplementary Table 10. MarR expression plasmids were synthesized as codon-optimized genes for E. coli expression by BioBasic in the pLIC-His N-term vector (pMCSG7) and transformed into E. coli BL21 (DE3) Gold cells for expression. […] At an OD600 of 0.8, protein expression was induced by the addition of 0.1 mM IPTG and incubation continued overnight. Cells were collected by centrifugation at 4,500 × g for 20 min at 4 °C in a Sorvall (model RC-3B) swinging bucket centrifuge. Cell pellets were resuspended in buffer A (20 mM potassium phosphate, pH 7.4, 50 mM imidazole, 500 mM NaCl), DNase, lysozyme and a Roche Complete EDTA-free protease inhibitor tablet. Resuspended cells were sonicated and clarified via centrifugation at 17,000 × g for 60 min in a Sorvall (model RC-5B) swinging bucket centrifuge. The lysate was applied to a nickel-nitrilotriacetic acid HP column (GE Healthcare) on an Aktaxpress Fast Performance Liquid Chromatography (FPLC) system (Amersham Bioscience) and washed with buffer A. Protein was eluted with buffer B (20 mM potassium phosphate, pH 7.4, 500 mM imidazole, 500 mM NaCl). Fractions containing the protein of interest were combined and passed over a HiLoadTM 16/60 SuperdexTM 200 gel filtration column. Proteins were eluted in S200 buffer (20 mM HEPES, pH 7.4, 300 mM NaCl). […]

Assay [2] addresses Bradyrhizobium japonicum MarR_Bj1 (Bradyrhizobium japonicum, UniProt A0A0A3XYM8). As to the kind of experiment: ITC IAA binding to MarR_Bj1. The settings on record: 25 °C, IadR (MarR_73-like). Here is the method: as §1
For assay [3], the target named is Pseudomonas putida 1290 MarR_iacR (Pseudomonas putida, UniProt B0FXI7). Nature of the assay: ITC IAA binding to MarR_iacR. The settings on record: 25 °C, IacR. As to the method:
as §1

Each structure is given as a SMILES string.

Sequence of Pseudomonas putida 1290 MarR_iacR (B0FXI7 whole entry): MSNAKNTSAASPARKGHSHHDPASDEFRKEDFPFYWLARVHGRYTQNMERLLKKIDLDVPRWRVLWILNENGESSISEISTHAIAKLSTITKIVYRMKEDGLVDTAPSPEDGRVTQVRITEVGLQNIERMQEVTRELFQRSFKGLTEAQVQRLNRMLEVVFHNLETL
Sequence of Bradyrhizobium japonicum MarR_Bj1 (A0A0A3XYM8 entry or part of it): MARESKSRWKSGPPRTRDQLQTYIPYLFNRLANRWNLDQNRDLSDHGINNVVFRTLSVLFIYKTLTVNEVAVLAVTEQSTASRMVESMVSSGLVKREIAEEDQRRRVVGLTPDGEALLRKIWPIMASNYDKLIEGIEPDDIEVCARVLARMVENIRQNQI

As for `O=C(O)Cc1c[nH]c2ccccc12` [IAA, indole-3-acetic acid], in assay [1], the KD1 entry was “No Binding”. For the same compound, the figures for the N1 in assay [2] and in assay [3] were 1.001 ± 0.069 and 0.590± 0.032, respectively. The Kd in assay [3] (read-out: KD1) stood at 4.45 ± 0.196 µM.
